Results from patent US9617276B2, “Compounds and methods for treating AIDS and HIV infections” (priority 2009, dated 2017).

Key:
HIV-1 protease = biological target: T1, HIV-1 protease (Human immunodeficiency virus type 1 group M subtype B, UniProt P04585); test: HIV protease enzyme inhibition, fluorometric assay of Toth and Marshall; format: biochemical; settings: Table 4; read-out: Ki
T1 construct: A simple, continuous fluorometric assay for HIV protease
Protocol: (§1) The inhibitory potencies of acyclic and cyclic inhibitors were measured by the assay protocol of Toth and Marshall (Toth, M. V.; Marshall, G. R. A simple, continuous fluorometric assay for HIV protease. Int. J. Pep. Protien Res. 1990, 36, 544-55).

HIV-1 = test: antiviral assay (IC50); format: cell-based; settings: Table 4; read-out: IC50
Protocol: as §1

[1] = system: multidrug-resistant clinical HIV-1 isolates (HIV-1MDR); test: microbe, parasite or virus in culture; format: cell-based; settings: Human immunodeficiency virus 1, read-out: greatest EC50 value against the clinical isolates
Protocol: (§2) The susceptibility of HIV-1LAI and primary HIV-1 isolates to various drugs were determined as described previously (Koh et al. 2003 Antimicrob Agents Chemother 47:3123-9). Briefly, MT-2 cells (2×10^4/ml) were exposed to 100 50% tissue culture infectious doses (TCID50S) of HIV-1LAI, in the presence or absence of various concentrations of drugs in 96-well microculture plates and were incubated at 37° C. for 7 days. After 100 μl of the medium was removed from each well, 3-(4,5-dimetylthiazol-2-yl)-2,5-diphenyltetrazolium bromide (MTT) solution (10 μl, 7.5 mg/ml in phosphate-buffered saline) was added to each well in the plate, followed by incubation at 37° C. for 3 h. […] All assays were performed in duplicate or triplicate. To determine the susceptibility of primary HIV-1 isolates to drugs, phytohemagglutinin-activated peripheral blood mononuclear cells (PHA-PBMCs; 106/ml) were exposed to 50 TCID50S of each. The target cells were exposed to HIV-1104pre or drug-resistant HIV-1 in the presence or absence of various concentrations of drugs and were incubated for 7 days. Upon the conclusion of the culture, the amounts of p24 Gag protein in the supernatants were determined using a fully automated chemiluminescent enzyme immunoassay system (Lumipulse F; Fujirebio Inc., Tokyo, Japan) (Maeda et al. 2001 J Biol Chem 276:35194-200). To determine the drug susceptibility of certain laboratory HIV-1 strains, MT-4 cells were used as target cells. In brief, MT-4 cells (10^5/ml) were exposed to 100 TCID50S of drug-resistant HIV-1 strains in the presence or absence of various concentrations of drugs and on day 7 of culture, the supernatant was harvested and the amounts of p24 Gag protein were determined. […] All assays were performed in duplicate or triplicate.
These clinical strains contained 9 to 14 amino acid substitutions in the protease-encoding region, which have reportedly been associated with HIV-1 resistance to various PIs.
Amino acid substitutions identified in the protease-encoding region compared to the consensus type B sequence cited from the Los Alamos database include L63P in HIV-1ERS104pre; L10I, K14R, L33I, M36I, M46I, F53I, K55R, I62V, L63P, A71V, G73S, V82A, L90M, and I93L in HIV-1MDR/B; L10I, I15V, K20R, L24I, M36I, M46L, I54V, I62V, L63P, K70Q, V82A, and L89M in HIV-1MDR/C; L10I, V11I, T12E, I15V, L19I, R41K, M46L, L63P, A71T, V82A, and L90M in HIV-1MDR/G; L10I, K14R, R41K, M46L, I54V, L63P, A71V, V82A, L90M, I93L in HIV-1MDR/TM; L10I, K43T, M46L, I54V, L63P, A71V, V82A, L90M, and Q92K in HIV-1MDR/MM; L10I, L24I, I33F, E35D, M36I, N37S, M46L, I54V, R57K, I62V, L63P, A71V, G73S, and V82A in HIV-1MDR/JSL. HIV-1ERS104pre served as a source of wild-type HIV-1. EC50s were determined by using PHA-PBMs as target cells, and inhibition of p24 Gag protein production by each drug was used as an end point. Numbers in parentheses represent n-fold changes of EC50s for each isolate compared to EC50s for wild-type HIV-1ERS104pre.

HIV-1246-1μM = test: microbe, parasite or virus in culture; format: cell-based, HIV-1; settings: Human immunodeficiency virus 1, MT4, read-out: EC50 (μM), HIV-1246-1 μM
Protocol: (§3) Briefly, MT-2 cells (2×10^4/ml) were exposed to 100 50% tissue culture infectious doses (TCID50S) of HIV-1LAI, in the presence or absence of various concentrations of drugs in 96-well microculture plates and were incubated at 37° C. for 7 days. After 100 μl of the medium was removed from each well, 3-(4,5-dimetylthiazol-2-yl)-2,5-diphenyltetrazolium bromide (MTT) solution (10 μl, 7.5 mg/ml in phosphate-buffered saline) was added to each well in the plate, followed by incubation at 37° C. for 3 h. […] All assays were performed in duplicate or triplicate. […] To determine the drug susceptibility of certain laboratory HIV-1 strains, MT-4 cells were used as target cells. In brief, MT-4 cells (10^5/ml) were exposed to 100 TCID50S of drug-resistant HIV-1 strains in the presence or absence of various concentrations of drugs and on day 7 of culture, the supernatant was harvested and the amounts of p24 Gag protein were determined. […] All assays were performed in duplicate or triplicate.
(§4) Numbers in parentheses represent n-fold changes in EC50s for each isolate compared to the EC50s for wild-type HIV-1NL4-3.

HIV-1396-1μM = test: microbe, parasite or virus in culture; format: cell-based, HIV-1; settings: Human immunodeficiency virus 1, MT4, read-out: EC50 (μM), HIV-1396-1 μM
Protocol: as §3, §4

HIV-2EHO = test: drug susceptibility, MT-2 cells, MTT assay, HIV-2EHO; format: cell-based; settings: Human immunodeficiency virus 2, MT2, read-out: EC50 (μM) for HIV-2EHO
Protocol: (§5) All assays were performed in duplicate or triplicate. […] All assays were performed in duplicate or triplicate.
(§6) Each selectivity index denotes a ratio of CC50 to EC50 against HIV-1LAI N.D., not done.

HIV-1APV5μM = test: microbe, parasite or virus in culture; format: cell-based; settings: Human immunodeficiency virus 1, MT4, read-out: EC50 (μM), HIV-1APV5 μM
Protocol: as §2, §4

HIV-1LPV5μM = test: microbe, parasite or virus in culture; format: cell-based; settings: Human immunodeficiency virus 1, MT4, read-out: EC50 (μM), HIV-1LPV5 μM
Protocol: as §2, §4

HIV-2ROD = test: drug susceptibility, MT-2 cells, MTT assay, HIV-2ROD; format: cell-based; settings: Human immunodeficiency virus 2, MT2, read-out: EC50 (μM) for HIV-2ROD
Protocol: as §5, §6

Compound	Ki (HIV-1 protease)	IC50 (HIV-1)	EC50 [1]	EC50 (HIV-1246-1μM)	EC50 (HIV-1396-1μM)	EC50 (HIV-2EHO)	EC50 (HIV-1APV5μM)	EC50 (HIV-1LPV5μM)	EC50 (HIV-2ROD)
COc1ccc2c(c1)OCCCCCCCC(C)CN(CC(O)C(Cc1ccccc1)NC(=O)OC1COC3OCCC13)S2(=O)=O (stereo not drawn) [Compound 22c]	< 1 nM	< 100 nM	–	–	–	–	–	–	–
CC(C)CN(C[C@@H](O)[C@H](Cc1ccccc1)NC(=O)O[C@H]1CO[C@H]2OCC[C@H]21)S(=O)(=O)c1ccc(N)cc1 [DRV, Darunavir]	–	–	27 nM	0.029 ± 0.001 µM	0.016 ± 0.001 µM	0.008 ± 0.007 µM	0.29 ± 0.0018 µM	0.025 ± 0.0066 µM	0.01 ± 0.004 µM
